Read-outs that look alike come from different tables or passages of the source.
Tests used:
[1] = type: in vivo; conditions: 100, 150 and 200 mg/kg, groups of two, 48 hr observation
Experimental: A study with synthetic compounds 13-7-2 (flavopereirine) and 13-9-1 (de-ethylflavopereirine) was conducted to compare the toxicity of the two compounds in animals. The compounds were dissolved in phosphate buffered saline for administration. Both compounds were injected IP in male immunodeficient (homozygous recessive scid/scid, beige/beige) mice.
Compound 13-7-2 was injected at a dose of 100 mg/kg, 150 mg/kg, and 200 mg/kg in mice divided in groups of two. […] One mouse injected with 150 mg/kg died at 6 hr whereas one mouse injected with 200 mg/kg dose died at 24 hr. One mouse injected with 100 mg/kg dose died at 48 hr.
Compound 13-9-1 was injected at a dose of 100 mg/kg, 150 mg/kg, and 200 mg/kg in mice divided in groups of two.

[2] = Toxicity in mice, intravenous administration; type: in vivo; conditions: 20 mg/kg and 40 mg/kg
Experimental: At 20 mg/kg and 40 mg/kg doses, intravenous administration of compound 13-9-1 in mice was well-tolerated. The 20 mg/kg dose provides sufficient serum concentration for the compound to exert its anti-tumor effect.
(§1) Oral administration was chosen for the mouse experiments because administration is simplified by avoiding the need for tail vein injections.

MRC-5 = test: MTT cell viability, normal control cell line; type: cell-based, human; conditions: MRC-5, 48 hr
Experimental: FIG. 7. Dose-response curves for cell viability of human ovarian cancer cell lines OVCAR-5 (triangles), SHIN-3 (squares), and OVCAR-8 (lozenges) exposed to de-ethylflavopereirine. Cells were cultured in the presence of increasing concentrations of the compound for 48 hr and cell viability was determined by MTT assay. MRC-5 (crosses), an immortalized, normal human […] cell line, was used as a control.
FIG. 8. Dose-response curves for cell viability of human pancreatic cancer cell lines MIA PaCa (squares), PANC-1 (lozenges), BxPc (crosses), and AsPc (triangles) exposed to de-ethylflavopereirine. Cells were cultured in the presence of increasing concentrations of the compound for 48 hr and cell viability was determined by MTT assay. MRC-5 (asterisks) was used as a control.
De-ethylflavopereirine was tested for its activity against ovarian, pancreatic, brain, and colon cancer cell lines. […] Cytotoxicity is assayed by reducing a yellow tetrazolium dye, 3-(4,5-dimethylthiazol-2-yl)-2,5-diphenyltetrazolium bromide (MTT), to insoluble purple formazan. The MTT assay is a colorimetric assay for determining the number of viable cells.

HT-29 = test: Viability of bioluminescent HT-29 colon cancer cells; type: cell-based, human; conditions: HT-29, luminescence
Text: FIG. 10. Dose-response curve for human colon cancer cell line HT-29 exposed to either de-ethylflavopereirine (squares) or Pao pereira plant extract (triangles) containing flavopereirine and at least one other anti-cancer compound, dihydroflavopereirine. The bioluminescent HT-29 cell line was used.
A bioluminescent line was used enabling viability to be assessed by luminescence. In this case, the activity of compound 13-9-1 was compared with a Pao pereira extract containing flavopereirine and at least one other anti-cancer compound.

PANC-1, MIA PaCa, BxPc = test: Apoptosis by flow cytometry in pancreatic cancer cell lines; type: cell-based; conditions: 10 μM and 20 μM
Experimental: FIG. 11. De-ethylflavopereirine induces apoptosis in pancreatic cancer cell lines PANC-1 (top), MIA PaCa (middle), and BxPc (bottom). Following exposure of cells to de-ethylflavopereirine at concentrations of 0.5 μM, 10 μM, and 20 μM, flow cytometry was used to assess the percentage of cells undergoing early apoptosis (clear), late apoptosis (dark), or necrosis (stipple). […] Values are mean±SEM (n=3). *p≤0.05 compared with control group using Student's t-test; **p≤0.01 compared with control group using Student's t-test.

[3] = system: PANC-1 pancreatic cancer cells; test: Cleavage of Caspase-3, Caspase-8 and PARP; type: cell-based; conditions: 0-20 μM for 48 hours; 20 μM for 0-48 hours
Text: FIG. 12. Cleavage of Caspase-3, Caspase-8, and PARP confirms that de-ethylflavopereirine induces apoptosis in PANC-1 pancreatic cancer cells. Beta-actin was used as a control.
Induction of apoptosis was also shown by detection of Caspase-8, Caspase-3, and PARP cleavage products. The cleaved protein products are identified in FIG. 12 by arrows adjacent to the right panel. The accumulation of these proteolytic fragments is a biochemical signature for apoptotic cell death.

[4] = Plasma concentrations after intravenous or oral administration; type: in vivo, mice
Experimental: FIG. 15. Plasma concentrations of de-ethylflavopereirine following intravenous or oral administration: intravenous at 20 mg/kg (lozenges) having a peak at approximately 2 hours, oral at 100 mg/kg (squares), or oral at 200 mg/kg (triangles) having a peak at approximately 4 hours.
as §1

[5] = Tissue distribution after oral administration; type: in vivo, mice; conditions: oral 200 mg/kg; for Tmax: mouse
Text: The highest concentrations (highest Cmax) were found in kidney, colon and spleen. Highest AUC was found with the lung, followed by spleen, colon, and kidney.
Lung had the largest AUC and the fastest Tmax. […] Compound 13-9-1 was accumulated in the lung relatively fast, and was eliminated relatively slowly. The concentration was maintained in lung for a long time relative to other organs. At 24 hr, the concentration in the lung was still 6.67 nmoles/mg protein, 38% of the peak of 17.50 at 2 hr.
Colon had the second highest Cmax among all the organs tested, and an AUC only less than lung and spleen. […] Tmax was 3 hr. At 24 hr, the concentration was 9.31 nmoles/mg protein, 29% of the peak of 31.63.

c1ccc2c(c1)[nH]c1c2cc[n+]2ccccc12 [Compound 13-9-1, 12H-indolo[2,3-a]quinolizin-5-ium]
deaths after IP injection [1]: None of the mice injected with compound 13-9-1 died | deaths after IP injection ([1]; listed as de-ethylflavopereirine): no mice injected IP with de-ethylflavopereirine died | tolerability of intravenous administration [2]: well-tolerated | toxicity to noncancerous cells compared with cancer cells (MRC-5): significantly less toxic | activity compared with Pao pereira extract (HT-29): active at much lower concentrations than the plant extract | induction of apoptosis (PANC-1, MIA PaCa, BxPc): induction is dose dependent | induction of apoptosis (PANC-1, MIA PaCa, BxPc; listed as De-ethylflavopereirine): Early apoptosis is the predominant result | cleavage of Caspase-3, Caspase-8 and PARP [3]: dose- and time-dependent | time of peak plasma concentration ([4]; intravenous at 20 mg/kg): approximately 2 hours | time of peak plasma concentration ([4]; oral at 200 mg/kg (sentence also lists oral at 100 mg/kg)): approximately 4 hours | Cmax ([5]; adrenal gland): 17.62 nmoles/mg of protein | Cmax ([5]; brain): 1.20 nmoles/mg of protein | Cmax ([5]; colon): 31.63 nmoles/mg of protein | concentration at 24 hr ([5]; colon): 9.31 nmoles/mg protein | concentration at 24 hr as share of the peak ([5]; colon): 29% | Cmax ([5]; heart): 7.82 nmoles/mg of protein | Cmax ([5]; kidney): 55.69 nmoles/mg of protein | Cmax ([5]; liver): 22.21 nmoles/mg of protein | Cmax ([5]; lung): 17.50 nmoles/mg of protein | concentration at 24 hr ([5]; lung): 6.67 nmoles/mg protein | concentration at 24 hr as share of the peak ([5]; lung): 38% | Tmax ([5]; adrenal gland): 4 h | Tmax ([5]; brain): 4 h | Tmax ([5]; colon): 3 h | Tmax ([5]; heart): 4 h | Tmax ([5]; kidney): 4 h | Tmax ([5]; liver): 4 h | Tmax ([5]; lung): 2 h | Tmax ([5]; muscle): 4 h | Tmax ([5]; ovary): 4 h | Tmax ([5]; pancreas): 4 h | Tmax ([5]; spleen): 4 h | Cmax ([5]; muscle): 5.67 nmoles/mg of protein | tissue distribution [5]: found in all tested organs and tissues, including the brain | Cmax ([5]; ovary): 11.17 nmoles/mg of protein | Cmax ([5]; pancreas): 16.95 nmoles/mg of protein | Cmax ([5]; spleen): 30.01 nmoles/mg of protein

Source: US11083714B2, “Selective anti-cancer agent effective for prevention and treatment” (Molecular International Research, Inc., priority 2018, dated 2021)
